Test systems include MDA-MB-231 breast; HT29 colon; HS 578T breast; UO-31 renal; 786-0 renal; SK-MEL-5 melanoma; RPMI-8226 leukemia; PC-3 prostate; NCI-H522 lung; TK-10 renal; DU-145 prostate.
What all share (assay): NCI-60 cell line screen, 48 h

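Where inhibition never reached the appropriate level, the endpoint shown equals the highest concentration tested. Otherwise, values were interpolated linearly from a five-concentration, 48-hour dose response in 96-well plates. TGI: total growth inhibition.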

As for `CC(C)(C)C1(COC(=O)c2ccc(N)cc2)COC1`, the TGI with MDA-MB-231 breast, with HT29 colon, in the assay with HS 578T breast, in the assay with UO-31 renal, with 786-0 renal and in the assay with SK-MEL-5 melanoma was above 100 µM each time. The TGI in the assay with RPMI-8226 leukemia, in the assay with PC-3 prostate, in the assay on NCI-H522 lung, with TK-10 renal and in the assay with DU-145 prostate was above 100 µM in each case.
On to `Cc1cn(CC2=NCC(C)(C)N2)c(=O)[nH]c1=O`, for which the TGI with MDA-MB-231 breast, in the assay on HT29 colon, in the assay on HS 578T breast, in the assay on UO-31 renal, in the assay on 786-0 renal and with SK-MEL-5 melanoma was above 100 µM each time. The TGI with RPMI-8226 leukemia, in the assay on PC-3 prostate, with NCI-H522 lung, in the assay with TK-10 renal and in the assay on DU-145 prostate was above 100 µM each time.
Consider `CC[C@H](C)[C@H]1NC(=O)[C@@H](NC(=O)[C@@H](CC(C)C)N(C)CC2CCCN2C(=O)C(C)=O)[C@@H](C)OC(=O)[C@H](Cc2ccc(OC)cc2)N(C)C(=O)C2CCCN2C(=O)[C@H](CC(C)C)NC(=O)[C@@H](C)C(=O)[C@H](C(C)C)OC(=O)C[C@@H]1O` (stereo partly drawn), for which the TGI in the assay on MDA-MB-231 breast came out at 0.0251 µM; with HT29 colon, 0.0065 µM; with HS 578T breast, 0.0144 µM; in the assay with UO-31 renal, 0.0862 µM; with 786-0 renal, 0.0118 µM; in the assay with SK-MEL-5 melanoma, 0.00843 µM. Besides, the TGI in the assay with RPMI-8226 leukemia came out at 0.00697 µM; with PC-3 prostate, 0.00983 µM; in the assay on NCI-H522 lung, 0.0523 µM; in the assay with TK-10 renal it was 0.0202 µM; with DU-145 prostate, 0.0032 µM.
In the case of `COc1cc(/C=C2\N=C(c3ccccc3)N(c3nc4c(OC)ccc(OC)c4s3)C2=O)cc(OC)c1OC`, the TGI in the assay on MDA-MB-231 breast, with HT29 colon, with HS 578T breast, with UO-31 renal, with 786-0 renal and with SK-MEL-5 melanoma was above 100 µM in each case. Besides, the TGI in the assay with RPMI-8226 leukemia, with PC-3 prostate, in the assay with NCI-H522 lung, in the assay with TK-10 renal and in the assay on DU-145 prostate was above 100 µM throughout.
As for `CCCNC(C#N)c1ccc(C(C#N)NCCC)cc1` (stereo not drawn), the TGI with MDA-MB-231 breast, in the assay on HT29 colon, in the assay with HS 578T breast, with UO-31 renal, in the assay on 786-0 renal and in the assay on SK-MEL-5 melanoma was above 100 µM in each case. Moreover, the TGI in the assay with PC-3 prostate, in the assay on NCI-H522 lung, in the assay with TK-10 renal and with DU-145 prostate was above 100 µM throughout.
Consider `O=C1COc2ccc([N+](=O)[O-])cc2C(=O)C1`, for which the TGI in the assay with MDA-MB-231 breast, with HT29 colon, in the assay with HS 578T breast, with UO-31 renal, in the assay on 786-0 renal and in the assay on SK-MEL-5 melanoma was above 10 µM each time. For the same molecule, the TGI with RPMI-8226 leukemia, in the assay with PC-3 prostate, with TK-10 renal and in the assay on DU-145 prostate was above 10 µM throughout.
`COc1cc(CC2c3cc(OC)c(OC)cc3CCN2C)c(Oc2cc3c(cc2OC)-c2c(O)c(OC)cc4c2C(C3)N(C)CC4)cc1OC` (stereo not drawn): the TGI in the assay on MDA-MB-231 breast worked out at 37.7 µM; in the assay on HT29 colon, 36.6 µM; in the assay with HS 578T breast, 45.2 µM; in the assay on UO-31 renal, 36.1 µM; in the assay with 786-0 renal, 84.4 µM; with SK-MEL-5 melanoma, 32.8 µM. For the same molecule, the TGI with PC-3 prostate was 94.6 µM; in the assay with NCI-H522 lung it was 39.3 µM; in the assay on TK-10 renal it was 51.3 µM; with DU-145 prostate, above 100 µM.
For `CCCCCCCCCCCCCCCCCCNc1ccn(C2OC(COP(=O)(O)OCC3OC(n4cc(C)c(=O)[nH]c4=O)CC3N=[N+]=[N-])C(O)C2O)c(=O)n1` (stereo not drawn), the TGI was 56.7 µM in the assay with MDA-MB-231 breast; 35.1 µM in the assay on HT29 colon; 49.8 µM in the assay with HS 578T breast; 58.8 µM in the assay with UO-31 renal; above 100 µM in the assay on 786-0 renal; 57.2 µM with SK-MEL-5 melanoma. The TGI is 32.7 µM with RPMI-8226 leukemia; 22.5 µM in the assay on PC-3 prostate; 30.7 µM with NCI-H522 lung; 69.5 µM in the assay with TK-10 renal; above 100 µM in the assay on DU-145 prostate.
With `CCOC(=O)CNC(=O)C(C)NC(=O)C(NC(=O)CC(c1ncc[nH]1)c1ncc[nH]1)C(C)CC` (stereo not drawn), the TGI in the assay on MDA-MB-231 breast, in the assay with HS 578T breast, in the assay with UO-31 renal, in the assay with 786-0 renal, in the assay on RPMI-8226 leukemia and in the assay with NCI-H522 lung was above 100 µM throughout. Besides, the TGI in the assay on TK-10 renal and with DU-145 prostate was above 100 µM throughout.
With `O=c1[nH]c(=O)n(Cc2ccccc2CO)cc1Sc1ccccc1`, the TGI in the assay on MDA-MB-231 breast is 33.8 µM; in the assay with HT29 colon, above 100 µM; in the assay on HS 578T breast it was 60.6 µM; in the assay with UO-31 renal, 22.9 µM; in the assay with 786-0 renal it was above 100 µM; in the assay with SK-MEL-5 melanoma, 26.7 µM. Further, the TGI is above 100 µM in the assay with PC-3 prostate, 3.81 µM in the assay on NCI-H522 lung, above 100 µM with TK-10 renal and above 100 µM with DU-145 prostate.
In the case of `O=C1/C(=C/c2ccccc2[N+](=O)[O-])N=C(c2ccccc2)N1C1Nc2cc3c(cc2S1)NC(N1C(=O)/C(=C/c2ccccc2[N+](=O)[O-])N=C1c1ccccc1)S3` (stereo not drawn), the TGI in the assay with MDA-MB-231 breast is above 100 µM; in the assay on HT29 colon, above 100 µM; with HS 578T breast, above 100 µM; in the assay with UO-31 renal it was above 100 µM; with 786-0 renal, 79.6 µM; in the assay with SK-MEL-5 melanoma, above 100 µM. Further, the TGI in the assay with RPMI-8226 leukemia was 49.7 µM; in the assay with PC-3 prostate, above 100 µM; in the assay with NCI-H522 lung, 77.9 µM; in the assay on TK-10 renal, above 100 µM; in the assay on DU-145 prostate it was above 100 µM.
With `Cc1cc(-c2nc3ccccc3s2)ccc1NC(=O)[C@H](C)N`, the TGI with MDA-MB-231 breast came to 32.6 µM; with HT29 colon it was 28.7 µM; in the assay on HS 578T breast it was 74.4 µM; in the assay on UO-31 renal it was 19.1 µM; in the assay with 786-0 renal, 23.7 µM; with SK-MEL-5 melanoma it was 26.1 µM. Further, the results for the TGI in the assay on PC-3 prostate, with NCI-H522 lung and in the assay on DU-145 prostate were 26.7 µM, 75.8 µM and 29 µM, respectively.

Values taken from PubChem BioAssay (NCI).
